Test results: BindingDB's records for doi:10.7270/Q27P8WT7 (Srmlsc, 2008)

Conditions: inactive by the depositor's call
Compound `Cc1ccc(OCc2nnc(-c3ccccn3)[nH]2)cc1` has an EC50 of 78.8 µM. In the case of `COc1ccc(C2=NOC(CN3C(=O)c4ccccc4S3(=O)=O)C2)cc1` (stereo not drawn), the EC50 is reported as 55 µM. Compound `Nc1ccccc1C(=O)/C=C/c1ccc2c(c1)OCO2` has an EC50 of 55.6 µM. Work on `COc1ccc2c3c(cccc13)C(=O)N(O)C2=O` yielded an EC50 of 41.6 µM. In the case of `Fc1ccc(NC(=S)Nc2nccs2)cc1` [1-(4-fluorophenyl)-3-(1,3-thiazol-2-yl)thiourea], the EC50 is reported as 35.6 µM. With `Brc1ccccc1OCCCn1cnc2ccccc21` [1-[3-(2-bromanylphenoxy)propyl]benzimidazole] the EC50 was 62.3 µM. Work on `CCCCNC(=S)Nc1ccc(-c2nc3ccc(C)cc3s2)cc1` [1-butyl-3-[4-(6-methyl-1,3-benzothiazol-2-yl)phenyl]thiourea] yielded an EC50 of 39.6 µM. `O=C(Nc1ccccc1)c1ccc2c(c1)OCCO2` [2,3-Dihydro-benzo[1,4]dioxine-6-carboxylic acid phenylamide] showed an EC50 of 41.7 µM. `O=C1CCCc2nc(N3CCc4ccccc43)ncc21` [2-(2,3-dihydroindol-1-yl)-7,8-dihydro-6H-quinazolin-5-one] showed an EC50 of 84.7 µM. With `NC(=NOC(=O)COc1ccccc1Cl)c1ccccn1` [2-(2-chlorophenoxy)acetic acid [(Z)-[amino(2-pyridinyl)methylidene]amino] ester] the EC50 was 39.1 µM. With `NC(=O)Cc1ccc2sc(-c3ccccc3)nc2c1` [2-(2-phenyl-1,3-benzothiazol-5-yl)acetamide] the EC50 was 36.5 µM. Compound `Cc1ccc2sc(NC(=O)CSc3nc(C)cc(C)c3C#N)nc2c1` [2-(3-Cyano-4,6-dimethyl-pyridin-2-ylsulfanyl)-N-(5-methyl-benzothiazol-2-yl)-acetamide] has an EC50 of 31.8 µM. `Cc1ccn2c(c1)nc(=S)n2C(=O)c1ccco1` [2-furanyl-(7-methyl-2-sulfanylidene-[1,2,4]triazolo[1,5-a]pyridin-3-yl)methanone] showed an EC50 of 56.4 µM. For `Cc1ccnc(NC(=O)c2cc3ccccc3oc2=O)c1` [2-keto-N-(4-methyl-2-pyridyl)chromene-3-carboxamide], the EC50 was 47.2 µM. Work on `O=c1oc(-c2ccccc2)nc2sc3c(c12)CCCC3` [2-phenyl-5,6,7,8-tetrahydro-4H-[1]benzothieno[2,3-d][1,3]oxazin-4-one] yielded an EC50 of 69.5 µM. With `COc1nc(-c2ccccc2)nnc1-c1ccccc1` [3,6-diphenyl-1,2,4-triazin-5-yl methyl ether] the EC50 was 38.9 µM. For `COc1ccc(C2=Nc3ccccc3OC2)cc1` [3-(4-methoxyphenyl)-2H-1,4-benzoxazine], the EC50 was 45.6 µM. Compound `c1ccc(CSc2ccc(-c3ccccn3)nn2)cc1` [3-(benzylthio)-6-(2-pyridyl)pyridazine] has an EC50 of 45.1 µM. For `CCOc1ccc(C(=O)Nc2cccc(C(=O)O)c2)cc1Cl` [3-[(3-chloranyl-4-ethoxy-phenyl)carbonylamino]benzoic acid], the EC50 was 47.8 µM. With `CCn1cnc2sc(-c3ccccc3)cc2c1=O` [3-ethyl-6-phenyl-4-thieno[2,3-d]pyrimidinone] the EC50 was 35.2 µM. For `O=C(Nc1ccc2c(c1)CCC2)c1cccc(F)c1` [3-fluoro-N-indan-5-yl-benzamide], the EC50 was 50.2 µM. For `Nc1nc(-c2ccc3ccccc3c2)cs1` [4-(2-naphthalenyl)-2-thiazolamine], the EC50 was 35.5 µM. `Nc1c(-c2ccccc2)cnn1-c1ccc(C(=O)O)cc1` [4-(5-amino-4-phenyl-1-pyrazolyl)benzoic acid] showed an EC50 of 46.2 µM. With `CCCCSc1ncc(C(=O)OCC)c(N)n1` [4-Amino-2-butylsulfanyl-pyrimidine-5-carboxylic acid ethyl ester] the EC50 was 46.2 µM. Work on `COc1ccc(-c2cn3cc(C(F)(F)F)cc(Cl)c3n2)cc1` [4-[8-chloro-6-(trifluoromethyl)imidazo[1,2-a]pyridin-2-yl]phenyl methyl ether] yielded an EC50 of 64.2 µM. Work on `CCOC(=O)c1nn(-c2ccc(C)cc2)cc1C(=O)c1ccccc1` [4-benzoyl-1-(4-methylphenyl)-3-pyrazolecarboxylic acid ethyl ester] yielded an EC50 of 36.7 µM. `COc1ccc(C(=O)Oc2c(CN3CCOCC3)cc(Cl)c3cccnc23)cc1` [4-methoxybenzoic acid [5-chloro-7-(4-morpholinylmethyl)-8-quinolinyl] ester] showed an EC50 of 46.5 µM. `Oc1ccc(CN2CCCCC2)c2cccnc12` [5-(1-piperidinylmethyl)-8-quinolinol] gave an EC50 of 53.8 µM. Compound `Cc1cccc(-c2cc(N)n(-c3ccccc3)n2)c1` [5-(3-methylphenyl)-2-phenyl-3-pyrazolamine] has an EC50 of 80.1 µM. With `Cn1nnc(-c2ccc(OCc3ccccc3F)cc2)n1` [5-[4-(2-fluorobenzyl)oxyphenyl]-2-methyl-tetrazole] the EC50 was 69.3 µM. With `COc1ccc2c(c1OC)C(=O)N(c1cccc(C(F)(F)F)c1)C2` [6,7-dimethoxy-2-[3-(trifluoromethyl)phenyl]-3H-isoindol-1-one] the EC50 was 69.9 µM. `CCCNC(=O)c1noc2c1CCc1cc(OC)ccc1-2` [7-methoxy-N-propyl-4,5-dihydrobenz[g]indoxazene-3-carboxamide] showed an EC50 of 39.9 µM. With `COc1ccc(OC(=O)c2cnn(-c3ccccc3)c2C)cc1` [(4-methoxyphenyl) 5-methyl-1-phenyl-pyrazole-4-carboxylate] the EC50 was 49.5 µM. With `Cc1ccc(NC(=O)c2noc3c2CCCCC3)cc1` [MLS000087401] the EC50 was 33.6 µM. Compound `CN(C)/C=N/c1ccc2nn(-c3ccccc3)nc2c1` [MLS000105162] has an EC50 of 42.9 µM. In the case of `S=C(c1ccc(-c2cccc(Cl)c2)o1)N1CCOCC1` [MLS000107692], the EC50 is reported as 89.6 µM. For `Cc1cccc(NC(=O)c2ccc3ccccc3n2)c1C` [MLS000569762], the EC50 was 84.4 µM. In the case of `CC(C)=CC(=O)Nc1ccc(Br)cc1` [N-(4-bromophenyl)-3-methylbut-2-enamide], the EC50 is reported as 46.4 µM.
